Measurements reported in patent US20050137251A1, “Dexanabinol and dexanabinol analogs regulate inflammation related genes” (priority 2002, published 2005).

What was measured:
[1] = test system: IL-1β secretion; assay: IL-1β secretion in LPS activated macrophages; assay type: cell-based; conditions: Mus musculus, Macrophage, read-out: IC50 for inhibition of IL-1β secretion
Description: The technique used to quantify the amount of a given protein in a liquid sample, either tissue culture supernatant or body fluid, is based on Enzyme Linked ImmunoSorbent Assay (ELISA) methodology. Either commercially available or established in house, the assay is based on the capture of the protein of interest by specific antibodies bound to the bottom of an ELISA plate well. Unbound material is washed away, the captured protein is then exposed to a secondary antibody generally labeled with horseradish peroxidase (HRP) or alkaline phosphatase (ALP). Again the unbound material is washed away, the samples are then incubated with the appropriate substrate yielding a colorimetric reaction. The reaction is stopped and reading is carried out in a spectrophotometer at the appropriate wavelength. Samples are tested at least in duplicate and the appropriate standard curve, consisting of serial dilutions of the recombinant target protein, is incorporated on each plate. Concentration of the protein in the sample is calculated from the standard curve.
RAW 264.7 macrophages, a mouse cell line (ATCC # TIB 71), were grown in Dulbecco's modified Eagle's medium (DMEM) with 4 mM L-glutamine adjusted to contain 1.5 g/L sodium bicarbonate, 4.5 g/L glucose, and 10% heat inactivated fetal bovine serum. […]

[2] = test system: COX-2 gene expression; assay: COX-2 gene expression in LPS i.c.v. injected mice brains; assay type: in vivo; conditions: 20 mg/kg i.p., whole brain 6 hours after 100 ng LPS i.c.v.
[3] = test system: IL-1β gene expression; assay: IL-1β gene expression in MCAo mice brains; conditions: 5 mg/kg i.v., 18 hrs following MCAo
[4] = test system: COX-2 gene expression; assay: COX-2 gene expression in LPS stimulated RAW 264.7 cells, real-time RT-PCR; assay type: cell-based, mouse; conditions: 10 μM, 2.5 hrs after LPS activation
Description: RAW 264.7 macrophages, a mouse cell line (ATCC # TIB 71), were grown in Dulbecco's modified Eagle's medium (DMEM) with 4 mM L-glutamine adjusted to contain 1.5 g/L sodium bicarbonate, 4.5 g/L glucose, and 10% heat inactivated fetal bovine serum. Cells were grown in tissue culture flasks and seeded at appropriate density into 24 wells tissue culture plates. 0.5×10^6 Raw cells in one milliliter were stimulated with 2 μg/ml Lipopolysaccharide E. coli 055:B5 (DIFCO Laboratories). The mouse macrophages were pre-treated for one hour with controls or 10 μM of dexanabinol and its analogs, unless indicated otherwise, and later on activated with LPS.
The results of this experiment are expressed as fold activation of COX-2 over non-activated macrophages, after normalization to cyclophilin A expression. When cells are treated with vehicle only we observe a maximal 6-fold increase in COX-2 expression. A decrease of 67% in RNA levels of COX-2 is observed when the activation is carried out in presence of 10 μM dexanabinol.
To test if COX-2 is the sole gene whose transcription is affected by compounds of the invention, additional genes were further analyzed by real-time RT-PCR in the above-described model of activated macrophages. This part of the study was performed with PRS-211,092 at doses up to 20 μM.

[5] = test system: COX-2 gene expression; assay: COX-2 gene expression in MCAo mice brains; conditions: 5 mg/kg i.v., 18 hrs following MCAo
[6] = test system: LoVo colorectal cancer cells; assay: Tumor growth of in vivo implanted LoVo colorectal cancer cells; set-up: species or system mice; conditions: end of 8 weeks treatment
Description: Once we have shown that dexanabinol and its analogs were inhibitors of tumor cell proliferation in vitro, we wished to test if our compounds were as efficient in vivo. For this purpose the tumor cells LoVo (originating from a colorectal tumor; ATCC # CCL-229) were grown in DMEM containing 4.5 g/L glucose, 2 mM Glutamine, 1% Pen/Strep and 10% heat inactivated fetal calf serum. The cells were harvested using Trypsin-EDTA, the detached cells were rinsed in PBS, and counted. Predetermined amounts (1×10^6 cells in constant volume of […]) were injected s.c. above the right femoral joint in nude CD-1 male mice (average weight 20-25 gr, Harlan, Israel). Each treatment group was composed of at least 7 animals. Each animal was clinically monitored daily. The growth of the tumor was also monitored during the daily visits but actual measurements were recorded once a week. When tumors reach the appropriate size, animals are treated with either vehicle, 5 ml/kg/day, or with our test compounds, in the range of 2.5 to 10 mg/kg/day.
Thirty-six out of the 40 implanted mice developed a visible tumor within 5 to 6 weeks from tumor implantation. All animals were treated first on the 36th-42nd day of tumor implantation and the treatment lasted 8 weeks. One animal died in each treatment group between the 5th and the 7th week of treatment. The results are expressed as percent of tumor growth at the various days of the treatment as compared to baseline day 1. The results are depicted in FIG. 7 where we can observe that the efficacy of dexanabinol is inversely proportional to its dose in the range tested. 2.5 mg/kg (▪) seems more efficient than 5 mg/kg (▴), itself better than 10 mg/kg (x), which has very little effect, if at all, as compared to vehicle (--♦--). By the end of the treatment, 2.5 mg/kg dexanabinol reduced the tumor growth by 89%, 5 mg/kg by 61% and 10 mg/kg by 21%.

[7] = test system: Panc-1; assay: Panc-1 pancreatic tumor cell proliferation (crystal violet); assay type: cell-based; conditions: Homo sapiens, 24 hours, read-out: Inhibition of Panc-1 cells proliferation
Description: Cells from several tumor-derived cell lines are tested for their proliferation capacity in presence of our test compounds. Pancreatic tumor cell lines were obtained from ATCC. Panc-1 (ATCC # CRL-1469) were cultured in DMEM supplemented with 4 mM Glutamine, 4.5 g/L glucose, 1.5 g/L bicarbonate, antibiotics (penicillin, nystatin and streptomycin) and 10% heat inactivated fetal calf serum. Aspc-1 (ATCC # CRL-1682) were cultured in RPMI supplemented with 2 mM Glutamine, 10 mM HEPES, 1 mM sodium pyruvate, 4.5 g/L glucose, 1.5 g/L bicarbonate, antibiotics (penicillin, nystatin and streptomycin) and 20% heat inactivated fetal calf serum. Cells were seeded in a 24 well plate (10^5 cells/ml/well) and grown overnight. The cells are incubated with the test compounds (1-100 μM) or vehicle (0.1% DMSO final concentration). Cell viability was determined 24 hours later using standard crystal violet staining. The culture medium was removed from the wells and the cells were fixed by adding 1 ml/well of 2% formaldehyde in PBS for 10 minutes. […] The plates were agitated for 15 minutes at room temperature and 100 μl were transferred in duplicate to a 96 well plate for reading. Optical density (OD) of the cells was measured at 620 nm in an ELISA reader and results are expressed as % viable cells. Absorbance of untreated cells is recorded as 100%.

With `CCCCCCC(C)(C)c1cc(O)c2c(c1)OC(C)(C)[C@H]1CC=C(CO)C[C@H]21` [dexanabinol, 1,1-dimethylheptyl-(3S,4S)-7-hydroxy-Δ^6-tetrahydrocannabinol] the IC50 [1] was 6 µM, the “Reduction in the level of COX-2 activation” value [2] was 53% and the “Modulation of IL-1β gene expression” value [3] was “not modulated”. For the same compound, the “Decrease in RNA levels of COX-2” value [4] was 67%, the “Reduction of COX-2 gene activation vs vehicle” value [5] was 38% and the “Reduction of tumor growth” value ([6]; 2.5 mg/kg/day) was 89%. The “Reduction of tumor growth” value ([6]; 5 mg/kg/day) was 61%, the “Reduction of tumor growth” value ([6]; 10 mg/kg/day) was 21% and the inhibition at 15 µM [7] was 26%.
